The record followed here is US20240327381A1, “Compounds and Compositions for Selective Degradation of Engineered Proteins” (Celgene Corporation, priority 2023, published 2024).

What all share (type): cell-based
Test [1] has as its target T1, Helios (Homo sapiens, UniProt Q96SW2+Q9UKS7).
T1 construct: endogenous in cells; host or cells: Jurkat cells, CRISPR/Cas9 knock-in of HiBit at the IKZF2 locus
The experiment in a line: Helios degradation in Jurkat/Helios/HiBit cells (Nano-Glo luminescence). As to conditions: for Helios Jurkat Hibit YMax: Ymax is the % protein degraded, 18 hr. In outline: (§1)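 Jurkat cells carrying CRISPR-knocked-in C-terminal HiBit-tagged endogenous IKZF2 were treated with compound in DMEM/10% FCS (10,000 cells/well) for 18 h at 37 °C. HiBit signal was read by Nano-Glo luminescence after 30 min at RT. EC50 for degradation came from a four-parameter logistic fit, with Ymax as % protein degraded.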
(In general: HiBiT is a short tag that completes a luciferase, so light tracks the accessible tagged protein.)

Test [2] deals with T2, Helios (Homo sapiens, UniProt Q9UKS7).
T2 construct: endogenous in cells; host or cells: Jurkat cells, CRISPR/Cas9 knock-in of HiBit at the IKZF2 locus
T2 sequence (Q9UKS7 whole entry): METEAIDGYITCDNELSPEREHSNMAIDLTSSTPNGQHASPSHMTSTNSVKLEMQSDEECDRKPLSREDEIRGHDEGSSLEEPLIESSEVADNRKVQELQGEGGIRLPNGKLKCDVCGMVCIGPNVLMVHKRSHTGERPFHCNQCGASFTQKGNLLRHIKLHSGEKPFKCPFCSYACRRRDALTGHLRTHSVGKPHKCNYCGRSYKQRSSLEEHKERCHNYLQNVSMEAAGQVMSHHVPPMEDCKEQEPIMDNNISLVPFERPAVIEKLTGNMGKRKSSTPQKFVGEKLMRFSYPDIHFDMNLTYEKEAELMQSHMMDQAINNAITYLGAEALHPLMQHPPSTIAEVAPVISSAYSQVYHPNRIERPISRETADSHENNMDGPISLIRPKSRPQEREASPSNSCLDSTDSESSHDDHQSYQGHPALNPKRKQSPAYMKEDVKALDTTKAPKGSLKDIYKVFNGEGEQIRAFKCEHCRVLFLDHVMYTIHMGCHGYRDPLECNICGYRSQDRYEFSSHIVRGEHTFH
T2 sequence (Q96SW2 whole entry, further chain): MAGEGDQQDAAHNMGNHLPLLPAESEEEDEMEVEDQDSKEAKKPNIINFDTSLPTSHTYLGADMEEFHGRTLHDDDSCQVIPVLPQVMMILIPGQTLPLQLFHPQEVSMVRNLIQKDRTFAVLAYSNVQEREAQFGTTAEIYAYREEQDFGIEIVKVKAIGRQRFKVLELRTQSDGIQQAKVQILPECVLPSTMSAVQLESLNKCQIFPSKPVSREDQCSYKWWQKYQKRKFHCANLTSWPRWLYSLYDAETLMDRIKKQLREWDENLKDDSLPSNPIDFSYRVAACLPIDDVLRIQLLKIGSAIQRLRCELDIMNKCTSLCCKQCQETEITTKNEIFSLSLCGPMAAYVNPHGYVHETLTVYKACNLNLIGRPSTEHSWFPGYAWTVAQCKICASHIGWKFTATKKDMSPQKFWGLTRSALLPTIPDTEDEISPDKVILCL
T2 sequence (Q16531 whole entry partner): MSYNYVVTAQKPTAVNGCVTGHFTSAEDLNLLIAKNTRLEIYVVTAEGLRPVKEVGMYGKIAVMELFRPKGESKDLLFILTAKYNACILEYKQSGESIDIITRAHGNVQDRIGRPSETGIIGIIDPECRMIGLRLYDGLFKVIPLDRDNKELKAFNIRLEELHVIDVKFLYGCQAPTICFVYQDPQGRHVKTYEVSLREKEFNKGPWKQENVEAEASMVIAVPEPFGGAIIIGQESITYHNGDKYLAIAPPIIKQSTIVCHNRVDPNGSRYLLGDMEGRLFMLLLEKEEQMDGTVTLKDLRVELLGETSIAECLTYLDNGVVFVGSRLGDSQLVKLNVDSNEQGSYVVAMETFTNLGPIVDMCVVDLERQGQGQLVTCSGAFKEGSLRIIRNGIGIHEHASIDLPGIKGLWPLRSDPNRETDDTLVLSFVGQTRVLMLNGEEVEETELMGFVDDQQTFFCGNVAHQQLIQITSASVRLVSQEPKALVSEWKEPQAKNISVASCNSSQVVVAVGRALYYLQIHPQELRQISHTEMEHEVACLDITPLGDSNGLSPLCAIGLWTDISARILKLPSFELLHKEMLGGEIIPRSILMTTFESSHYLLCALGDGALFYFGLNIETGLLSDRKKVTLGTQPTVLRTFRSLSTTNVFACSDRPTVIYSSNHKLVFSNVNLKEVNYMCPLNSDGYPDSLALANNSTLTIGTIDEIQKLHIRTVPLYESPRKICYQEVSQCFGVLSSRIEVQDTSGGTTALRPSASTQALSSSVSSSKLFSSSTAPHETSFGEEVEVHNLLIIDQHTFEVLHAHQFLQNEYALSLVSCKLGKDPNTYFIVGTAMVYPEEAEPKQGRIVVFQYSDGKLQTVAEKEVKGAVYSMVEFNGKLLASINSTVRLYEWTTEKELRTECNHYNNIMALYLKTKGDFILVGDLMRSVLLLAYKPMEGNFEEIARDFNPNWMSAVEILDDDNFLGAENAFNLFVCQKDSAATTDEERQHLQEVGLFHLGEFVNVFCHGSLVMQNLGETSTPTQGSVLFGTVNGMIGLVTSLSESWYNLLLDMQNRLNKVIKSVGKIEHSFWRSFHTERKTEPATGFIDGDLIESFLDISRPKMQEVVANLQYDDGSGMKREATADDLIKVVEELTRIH
Described as above. To be noted: 18 hr, read-out: Helios Jurkat Hibit IC50. In short, it runs like this:
as §1

Test [3] concerns the target T3, IKZF1 ZNF2_ZNF3 Q1F degron-tagged CD19 CAR (Homo sapiens, UniProt Q13422, Q146F).
T3 construct: ZNF2_ZNF3 Q1F degron (GERPFFCNQCGASFTQKGNLLRHIKLHSGEKPFKCHLCNYACRRRDALTGHLRTHS); fused on or other part: anti-CD19 scFv, CD28 transmembrane domain, 4-1BB costimulatory domain, CD3 zeta signaling domain (the CAR that carries the degron), and Nluc
Briefly: Degradation of Q1F degron-tagged CD19 CAR in Jurkat cells (flow cytometry of CAR levels). As to conditions: for DC50: Jurkat cells expressing CD19 CAR tagged with IKZF1 ZNF2_ZNF3 Q1F, 18 hours at 37° C., CAR levels normalized to untreated cells, read-out: Q1F Jurkat IC50; for Dmax: Ymax is the % protein degraded, Jurkat cells expressing Q1F degron-tagged CD19 CAR, 18 hours, read-out: Q1F Jurkat-YMax. In short, it runs like this:
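Jurkat cells were lentivirally transduced with an anti-CD19 scFv/CD28 TM/4-1BB/CD3ζ CAR tagged with an IKZF1 ZNF2_ZNF3 Q1F degron–Nluc, then treated with compound titrations for 18 h at 37 °C. CAR surface levels were stained (20 min, 4 °C), read by flow cytometry and normalised to untreated cells. EC50 came from a four-parameter logistic fit; Ymin is the minimum % CAR remaining.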
On the technique in general: Flow cytometry measures light scatter and fluorescence of single cells or particles in a stream.

T3 sequence (Q13422 whole entry Q146F, the tested form may be a part): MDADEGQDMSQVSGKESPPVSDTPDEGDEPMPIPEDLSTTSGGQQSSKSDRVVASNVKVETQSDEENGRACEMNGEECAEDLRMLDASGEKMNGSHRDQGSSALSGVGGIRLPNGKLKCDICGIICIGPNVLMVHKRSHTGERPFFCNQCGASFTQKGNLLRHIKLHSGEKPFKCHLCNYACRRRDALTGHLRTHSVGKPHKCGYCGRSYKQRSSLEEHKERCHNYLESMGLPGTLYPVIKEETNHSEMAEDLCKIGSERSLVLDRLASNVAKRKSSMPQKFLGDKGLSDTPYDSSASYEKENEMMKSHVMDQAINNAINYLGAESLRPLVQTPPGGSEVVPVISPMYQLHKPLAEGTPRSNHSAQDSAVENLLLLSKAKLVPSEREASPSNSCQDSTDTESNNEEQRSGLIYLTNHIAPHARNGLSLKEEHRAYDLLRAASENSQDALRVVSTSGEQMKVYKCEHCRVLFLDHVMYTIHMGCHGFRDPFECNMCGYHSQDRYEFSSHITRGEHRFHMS
T1 sequence (Q9UKS7 whole entry): as the sequence (Q9UKS7 whole entry) above
T1 sequence (Q96SW2 whole entry): as the sequence (Q96SW2 whole entry, further chain) above
T1 sequence (Q16531 whole entry partner): as the sequence (Q16531 whole entry partner) above

Turning to `Cc1cc(-c2cc(F)c3c(c2)CN(C2CCC(=O)NC2=O)C3=O)nc(N)c1C` (stereo not drawn) [Compound 16, 3-(5-(6-amino-4,5-dimethylpyridin-2-yl)-7-fluoro-1-oxoisoindolin-2-yl)piperidine-2,6-dione], in test [1], the “Helios Jurkat Hibit YMax” value is listed as 64.8253%. Moreover, in test [2], the DC50 turned out to be 0.012 µM. Also, in test [3], the DC50 came to 0.00267 µM and the Dmax came out at 92.9%.

Take `O=C1CCC(N2Cc3c(cc(F)c(CN4CCN(Cc5ccc6c(c5)OCCO6)CC4)c3F)C2=O)C(=O)N1` (stereo not drawn) [Compound 76, 3-(5-((4-((2,3-dihydrobenzo[b][1,4]dioxin-6-yl)methyl)piperazin-1-yl)methyl)-4,6-difluoro-1-oxoisoindolin-2-yl)piperidine-2,6-dione]: the “Helios Jurkat Hibit YMax” value in test [1] stood at 72.1901%. In test [2], the DC50 was 0.0063 µM. In test [3], the DC50 turned out to be 0.00489 µM and the Dmax stood at 88.8%.

As to `O=C1CCC(N2Cc3c(cc(F)c(C4(O)CCN(Cc5ccc(C(F)(F)F)cc5)CC4)c3F)C2=O)C(=O)N1` (stereo not drawn) [Compound 11, 3-(4,6-difluoro-5-(4-hydroxy-1-(4-(trifluoromethyl)benzyl)piperidin-4-yl)-1-oxoisoindolin-2-yl)piperidine-2,6-dione], the DC50 in test [1] (read-out: Helios Jurkat Hibit IC50, 18 hr) is at least 10 µM; in test [3], 0.00491 µM. Also, the Dmax in test [3] amounted to 83.5%.

With `O=C1CCC(N2Cc3c(cc(F)c(C4CCN(Cc5ccc6[nH]ncc6c5)CC4)c3F)C2=O)C(=O)N1` (stereo not drawn) [Compound 63, 3-(5-(1-((1H-indazol-5-yl)methyl)piperidin-4-yl)-4,6-difluoro-1-oxoisoindolin-2-yl)piperidine-2,6-dione], the “Helios Jurkat Hibit YMax” value in test [1] is 55.0199%. The DC50 was found to be 3.31 µM in test [2] and 0.000103 µM in test [3]. Besides, the Dmax in test [3] turned out to be 93%.

For the compound `Cc1ccc(CN2CCC(c3c(F)cc4c(c3F)CN(C3CCC(=O)NC3=O)C4=O)CC2)cc1F` (stereo not drawn) [Compound 46, 3-(4,6-difluoro-5-(1-(3-fluoro-4-methylbenzyl)piperidin-4-yl)-1-oxoisoindolin-2-yl)piperidine-2,6-dione], the “Helios Jurkat Hibit YMax” value in test [1] is 50.8729%. Further, the DC50 in test [2] turned out to be 6520 µM. In test [3], the DC50 worked out at 0.000112 µM and the Dmax worked out at 91.8%.

Consider `O=C1CCC(N2Cc3c(cc(F)c(C4CCN(Cc5ccc6[nH]ccc6c5)CC4)c3F)C2=O)C(=O)N1` (stereo not drawn) [Compound 61, 3-(5-(1-((1H-indol-5-yl)methyl)piperidin-4-yl)-4,6-difluoro-1-oxoisoindolin-2-yl)piperidine-2,6-dione], for which the “Helios Jurkat Hibit YMax” value in test [1] was 59.5442%. Also, the DC50 in test [2] was 0.152 µM. For the same compound, in test [3], the DC50 amounted to 0.000204 µM and the Dmax was 93.4%.

Consider `Cc1cc(Br)cnc1CN1CCCC(c2c(F)cc3c(c2F)CN(C2CCC(=O)NC2=O)C3=O)C1` (stereo not drawn) [Compound 68, 3-(5-(1-((5-bromo-3-methylpyridin-2-yl)methyl)piperidin-3-yl)-4,6-difluoro-1-oxoisoindolin-2-yl)piperidine-2,6-dione], for which the DC50 in test [2] is at least 10 µM. In test [3], the DC50 is 0.0505 µM and the Dmax is 63.5%.

Consider `O=C1CCC(N2Cc3c(cc(F)c(C4CCN(Cc5nnc(-c6ccccc6)o5)CC4)c3F)C2=O)C(=O)N1` (stereo not drawn) [Compound 120, 3-(4,6-difluoro-1-oxo-5-(1-((5-phenyl-1,3,4-oxadiazol-2-yl)methyl)piperidin-4-yl)isoindolin-2-yl)piperidine-2,6-dione], for which the DC50 in test [2] is at least 10 µM. In test [3], the DC50 turned out to be 0.165 µM and the Dmax was found to be 65.8%.

`O=C1CCC(N2Cc3cc(C4CCN(CC5CCCCC5)CC4)c(F)cc3C2=O)C(=O)N1` (stereo not drawn) [Compound 82, 3-(5-(1-(cyclohexylmethyl)piperidin-4-yl)-6-fluoro-1-oxoisoindolin-2-yl)piperidine-2,6-dione]: the results for the DC50 in test [2] and in test [3] were at least 10 µM and 0.00172 µM, respectively. Also, the Dmax in test [3] amounted to 88.2%.

Turning to `O=C1CCC(N2Cc3c(cc(F)c(C4CCN(CCC(F)(F)F)CC4)c3F)C2=O)C(=O)N1` (stereo not drawn) [Compound 114, 3-(4,6-difluoro-1-oxo-5-(1-(3,3,3-trifluoropropyl)piperidin-4-yl)isoindolin-2-yl)piperidine-2,6-dione], the DC50 in test [2] was at least 10 µM. Also, in test [3], the DC50 came to 0.0108 µM and the Dmax amounted to 74.8%.

In the case of `O=C1CCC(N2Cc3c(cc(F)c(C4CCN(Cc5ncccc5Br)CC4)c3F)C2=O)C(=O)N1` (stereo not drawn) [Compound 50, 3-(5-(1-((3-bromopyridin-2-yl)methyl)piperidin-4-yl)-4,6-difluoro-1-oxoisoindolin-2-yl)piperidine-2,6-dione], the DC50 in test [2] is at least 10 µM. For the same compound, in test [3], the DC50 came to 0.00136 µM and the Dmax is 88.4%.

With `CC1(C)Cc2cccc(CN3CCN(Cc4c(F)cc5c(c4F)CN(C4CCC(=O)NC4=O)C5=O)CC3)c2O1` (stereo not drawn) [Compound 75, 3-(5-((4-((2,2-dimethyl-2,3-dihydrobenzofuran-7-yl)methyl)piperazin-1-yl)methyl)-4,6-difluoro-1-oxoisoindolin-2-yl)piperidine-2,6-dione], in test [1], the “Helios Jurkat Hibit YMax” value worked out at 65.5325%. In test [2], the DC50 was found to be 0.0651 µM. Besides, in test [3], the DC50 is 0.00332 µM and the Dmax was 89%.

Turning to `O=C1CCC(N2Cc3c(cc(F)c(C4(O)CCN(Cc5cccc(C(F)(F)F)c5)CC4)c3F)C2=O)C(=O)N1` (stereo not drawn) [Compound 26, 3-(4,6-difluoro-5-(4-hydroxy-1-(3-(trifluoromethyl)benzyl)piperidin-4-yl)-1-oxoisoindolin-2-yl)piperidine-2,6-dione], the DC50 in test [2] is at least 10 µM; in test [3], 0.00642 µM. Further, in test [3], the Dmax amounted to 78.2%.

As to `O=C1CCC(N2Cc3c(cc(F)c(C4CCN(CC(c5ccccc5)c5ccccc5)CC4)c3F)C2=O)C(=O)N1` (stereo not drawn) [Compound 10, 3-(5-(1-(2,2-diphenylethyl)piperidin-4-yl)-4,6-difluoro-1-oxoisoindolin-2-yl)piperidine-2,6-dione], the DC50 in test [2] is at least 10 µM; in test [3], 0.000202 µM. In addition, the Dmax in test [3] turned out to be 90.7%.

As to `Cn1nccc1CN1CCC(c2c(F)cc3c(c2F)CN(C2CCC(=O)NC2=O)C3=O)CC1` (stereo not drawn) [Compound 102, 3-(4,6-difluoro-5-(1-((1-methyl-1H-pyrazol-5-yl)methyl)piperidin-4-yl)-1-oxoisoindolin-2-yl)piperidine-2,6-dione], the DC50 in test [2] is at least 10 µM. In test [3], the DC50 was 0.000283 µM and the Dmax turned out to be 84.3%.

For `O=C1CCC(N2Cc3c(cc(F)c(C4(O)CCN(Cc5cc(C(F)(F)F)cc(C6CC6)n5)CC4)c3F)C2=O)C(=O)N1` (stereo not drawn) [Compound 17, 3-(5-(1-((6-cyclopropyl-4-(trifluoromethyl)pyridin-2-yl)methyl)-4-hydroxypiperidin-4-yl)-4,6-difluoro-1-oxoisoindolin-2-yl)piperidine-2,6-dione], the figures for the DC50 in test [2] and in test [3] were at least 10 µM and 0.0289 µM, respectively. For the same compound, the Dmax in test [3] was 69.2%.
